Data as given in publication PMC8213057, “Targeting ALK2: An Open Science Approach to Developing Therapeutics for the Treatment of Diffuse Intrinsic Pontine Glioma” (Journal of Medicinal Chemistry, 2020).

Experiments:
ALK = ALK (Homo sapiens, UniProt Q9UM73); conditions: 1 μM; Run 1, Run 2
MKK7 = target: T1, MKK7 (Homo sapiens, UniProt O14733); test: biochemical; conditions: read-out: % enzyme activity, 1 μM; Run 1, Run 2
T1 sequence (O14733 1-419): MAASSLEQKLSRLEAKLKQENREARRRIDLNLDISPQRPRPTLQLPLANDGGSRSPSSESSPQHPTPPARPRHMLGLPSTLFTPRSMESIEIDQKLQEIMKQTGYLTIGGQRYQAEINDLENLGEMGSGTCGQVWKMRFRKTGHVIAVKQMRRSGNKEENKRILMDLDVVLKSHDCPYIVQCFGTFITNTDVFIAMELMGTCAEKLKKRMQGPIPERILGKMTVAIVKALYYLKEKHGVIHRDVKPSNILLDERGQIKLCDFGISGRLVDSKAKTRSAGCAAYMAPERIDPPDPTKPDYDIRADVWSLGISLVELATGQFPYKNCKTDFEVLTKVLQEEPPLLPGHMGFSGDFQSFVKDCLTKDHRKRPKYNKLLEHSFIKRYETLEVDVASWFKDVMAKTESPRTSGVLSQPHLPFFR

JAK2 = JAK2 (Homo sapiens, UniProt O60674); test: biochemical; conditions: read-out: % enzyme activity, 1 μM; Run 1, Run 2
JAK2, sequence (O60674 whole entry): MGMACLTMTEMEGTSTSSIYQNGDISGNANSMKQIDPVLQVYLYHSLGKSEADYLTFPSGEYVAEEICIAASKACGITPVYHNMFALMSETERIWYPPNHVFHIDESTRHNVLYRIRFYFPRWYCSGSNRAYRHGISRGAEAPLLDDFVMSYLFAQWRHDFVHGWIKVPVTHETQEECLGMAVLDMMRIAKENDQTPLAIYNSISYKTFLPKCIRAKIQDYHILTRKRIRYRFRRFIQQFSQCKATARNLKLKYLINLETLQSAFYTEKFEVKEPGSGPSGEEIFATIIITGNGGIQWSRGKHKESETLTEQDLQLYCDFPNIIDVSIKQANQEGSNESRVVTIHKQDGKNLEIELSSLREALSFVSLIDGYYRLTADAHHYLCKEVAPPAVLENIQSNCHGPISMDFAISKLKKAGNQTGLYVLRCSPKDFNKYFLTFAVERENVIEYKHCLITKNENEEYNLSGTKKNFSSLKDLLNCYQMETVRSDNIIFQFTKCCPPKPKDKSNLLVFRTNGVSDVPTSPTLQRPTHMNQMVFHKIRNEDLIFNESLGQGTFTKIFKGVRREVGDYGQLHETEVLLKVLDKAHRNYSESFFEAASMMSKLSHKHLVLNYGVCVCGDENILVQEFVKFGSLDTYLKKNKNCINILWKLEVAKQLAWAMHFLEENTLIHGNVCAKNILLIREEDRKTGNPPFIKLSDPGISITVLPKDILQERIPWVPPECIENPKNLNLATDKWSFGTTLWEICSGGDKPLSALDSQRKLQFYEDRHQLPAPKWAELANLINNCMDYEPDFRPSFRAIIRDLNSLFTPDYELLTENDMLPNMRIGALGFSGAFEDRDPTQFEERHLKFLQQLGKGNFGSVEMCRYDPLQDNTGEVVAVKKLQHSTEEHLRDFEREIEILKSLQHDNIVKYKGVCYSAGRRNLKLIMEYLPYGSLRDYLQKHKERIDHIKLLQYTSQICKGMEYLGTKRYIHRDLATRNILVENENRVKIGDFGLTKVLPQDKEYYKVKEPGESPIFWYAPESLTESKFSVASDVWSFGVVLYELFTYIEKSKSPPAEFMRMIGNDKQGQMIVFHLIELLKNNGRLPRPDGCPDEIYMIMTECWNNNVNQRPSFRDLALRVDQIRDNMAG

PKCepsilon = target: T2, PKCepsilon (Homo sapiens, UniProt Q02156); test: biochemical; conditions: read-out: % enzyme activity, 1 μM; Run 1, Run 2
T2 sequence (Q02156 1-737): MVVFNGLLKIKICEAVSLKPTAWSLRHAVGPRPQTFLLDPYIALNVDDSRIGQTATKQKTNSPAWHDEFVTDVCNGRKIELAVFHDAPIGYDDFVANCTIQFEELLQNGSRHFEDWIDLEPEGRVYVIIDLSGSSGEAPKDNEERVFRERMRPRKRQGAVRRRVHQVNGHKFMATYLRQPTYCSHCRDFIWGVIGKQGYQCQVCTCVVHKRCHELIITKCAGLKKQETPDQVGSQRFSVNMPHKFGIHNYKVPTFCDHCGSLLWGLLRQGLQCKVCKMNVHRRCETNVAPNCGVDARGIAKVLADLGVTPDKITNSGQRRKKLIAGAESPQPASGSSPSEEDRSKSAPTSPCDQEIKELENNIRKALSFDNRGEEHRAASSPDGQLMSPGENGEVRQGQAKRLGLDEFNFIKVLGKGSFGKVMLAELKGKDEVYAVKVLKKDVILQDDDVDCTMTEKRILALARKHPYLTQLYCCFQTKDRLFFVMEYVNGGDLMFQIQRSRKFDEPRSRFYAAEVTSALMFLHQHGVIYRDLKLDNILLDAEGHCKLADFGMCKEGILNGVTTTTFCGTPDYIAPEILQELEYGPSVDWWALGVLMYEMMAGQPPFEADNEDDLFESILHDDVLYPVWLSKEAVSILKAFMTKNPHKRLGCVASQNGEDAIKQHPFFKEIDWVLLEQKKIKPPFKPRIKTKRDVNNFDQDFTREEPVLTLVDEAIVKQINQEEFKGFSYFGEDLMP

Aurora A = target: T3, Aurora A (Homo sapiens, UniProt O14965); test: biochemical; conditions: read-out: % enzyme activity, 1 μM; Run 1, Run 2
T3 sequence (O14965 1-403): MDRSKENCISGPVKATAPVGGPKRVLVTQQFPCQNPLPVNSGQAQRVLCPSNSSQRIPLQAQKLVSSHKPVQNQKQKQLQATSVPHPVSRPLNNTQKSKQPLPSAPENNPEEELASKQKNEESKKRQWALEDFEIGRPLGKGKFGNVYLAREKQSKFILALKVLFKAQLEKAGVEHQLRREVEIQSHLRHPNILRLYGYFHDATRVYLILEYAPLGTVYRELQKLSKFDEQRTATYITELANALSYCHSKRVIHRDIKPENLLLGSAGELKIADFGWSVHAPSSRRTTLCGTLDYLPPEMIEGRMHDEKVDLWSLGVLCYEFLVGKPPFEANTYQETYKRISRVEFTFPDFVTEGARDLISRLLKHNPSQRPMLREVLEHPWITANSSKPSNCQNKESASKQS

RAF1 = RAF1 (Homo sapiens, UniProt P04049); conditions: 1 μM; Run 1, Run 2
RAF1, sequence (P04049 whole entry): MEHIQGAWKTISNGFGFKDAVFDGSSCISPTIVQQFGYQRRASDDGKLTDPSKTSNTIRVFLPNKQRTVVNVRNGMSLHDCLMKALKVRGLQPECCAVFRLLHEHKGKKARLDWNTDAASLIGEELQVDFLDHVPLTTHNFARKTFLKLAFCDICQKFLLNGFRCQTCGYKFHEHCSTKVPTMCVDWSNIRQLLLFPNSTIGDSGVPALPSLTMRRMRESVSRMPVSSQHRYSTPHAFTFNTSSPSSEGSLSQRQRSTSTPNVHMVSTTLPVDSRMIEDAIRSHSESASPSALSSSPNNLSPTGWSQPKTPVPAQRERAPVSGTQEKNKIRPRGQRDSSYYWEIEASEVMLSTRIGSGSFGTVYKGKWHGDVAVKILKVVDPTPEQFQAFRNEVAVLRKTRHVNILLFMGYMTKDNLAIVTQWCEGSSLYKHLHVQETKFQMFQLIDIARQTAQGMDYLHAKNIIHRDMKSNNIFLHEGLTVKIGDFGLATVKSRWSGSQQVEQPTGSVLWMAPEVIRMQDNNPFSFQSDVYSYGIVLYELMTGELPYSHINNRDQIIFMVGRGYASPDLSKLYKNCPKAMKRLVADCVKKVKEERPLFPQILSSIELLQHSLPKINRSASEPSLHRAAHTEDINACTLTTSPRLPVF

PKN3/PRK3 = PKN3/PRK3 (Homo sapiens, UniProt Q6P5Z2); test: biochemical; conditions: read-out: % enzyme activity, 1 μM; Run 1, Run 2
PKN3/PRK3, sequence (Q6P5Z2 whole entry): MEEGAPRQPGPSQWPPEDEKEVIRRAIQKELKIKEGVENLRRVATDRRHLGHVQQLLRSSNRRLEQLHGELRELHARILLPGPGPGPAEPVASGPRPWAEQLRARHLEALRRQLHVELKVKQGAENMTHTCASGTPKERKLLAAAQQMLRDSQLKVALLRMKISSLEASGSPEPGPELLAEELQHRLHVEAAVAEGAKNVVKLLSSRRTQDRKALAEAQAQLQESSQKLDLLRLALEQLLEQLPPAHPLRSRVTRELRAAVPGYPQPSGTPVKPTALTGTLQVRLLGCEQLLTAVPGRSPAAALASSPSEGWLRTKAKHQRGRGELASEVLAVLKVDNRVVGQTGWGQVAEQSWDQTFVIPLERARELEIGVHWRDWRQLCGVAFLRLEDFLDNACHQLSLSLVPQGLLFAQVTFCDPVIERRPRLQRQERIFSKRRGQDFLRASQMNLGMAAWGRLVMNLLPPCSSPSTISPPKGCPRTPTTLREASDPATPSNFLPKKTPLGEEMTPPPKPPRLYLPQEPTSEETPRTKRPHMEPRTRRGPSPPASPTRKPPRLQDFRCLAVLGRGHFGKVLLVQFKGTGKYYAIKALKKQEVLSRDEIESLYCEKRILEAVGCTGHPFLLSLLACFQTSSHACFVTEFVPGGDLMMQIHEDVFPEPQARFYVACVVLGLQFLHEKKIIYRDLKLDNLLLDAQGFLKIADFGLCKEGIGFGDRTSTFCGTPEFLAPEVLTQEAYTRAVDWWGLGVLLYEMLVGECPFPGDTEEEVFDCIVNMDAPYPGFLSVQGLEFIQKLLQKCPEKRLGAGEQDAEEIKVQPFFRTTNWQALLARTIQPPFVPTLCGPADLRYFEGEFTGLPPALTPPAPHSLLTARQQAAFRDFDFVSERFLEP

ALK, sequence (Q9UM73 19-1620): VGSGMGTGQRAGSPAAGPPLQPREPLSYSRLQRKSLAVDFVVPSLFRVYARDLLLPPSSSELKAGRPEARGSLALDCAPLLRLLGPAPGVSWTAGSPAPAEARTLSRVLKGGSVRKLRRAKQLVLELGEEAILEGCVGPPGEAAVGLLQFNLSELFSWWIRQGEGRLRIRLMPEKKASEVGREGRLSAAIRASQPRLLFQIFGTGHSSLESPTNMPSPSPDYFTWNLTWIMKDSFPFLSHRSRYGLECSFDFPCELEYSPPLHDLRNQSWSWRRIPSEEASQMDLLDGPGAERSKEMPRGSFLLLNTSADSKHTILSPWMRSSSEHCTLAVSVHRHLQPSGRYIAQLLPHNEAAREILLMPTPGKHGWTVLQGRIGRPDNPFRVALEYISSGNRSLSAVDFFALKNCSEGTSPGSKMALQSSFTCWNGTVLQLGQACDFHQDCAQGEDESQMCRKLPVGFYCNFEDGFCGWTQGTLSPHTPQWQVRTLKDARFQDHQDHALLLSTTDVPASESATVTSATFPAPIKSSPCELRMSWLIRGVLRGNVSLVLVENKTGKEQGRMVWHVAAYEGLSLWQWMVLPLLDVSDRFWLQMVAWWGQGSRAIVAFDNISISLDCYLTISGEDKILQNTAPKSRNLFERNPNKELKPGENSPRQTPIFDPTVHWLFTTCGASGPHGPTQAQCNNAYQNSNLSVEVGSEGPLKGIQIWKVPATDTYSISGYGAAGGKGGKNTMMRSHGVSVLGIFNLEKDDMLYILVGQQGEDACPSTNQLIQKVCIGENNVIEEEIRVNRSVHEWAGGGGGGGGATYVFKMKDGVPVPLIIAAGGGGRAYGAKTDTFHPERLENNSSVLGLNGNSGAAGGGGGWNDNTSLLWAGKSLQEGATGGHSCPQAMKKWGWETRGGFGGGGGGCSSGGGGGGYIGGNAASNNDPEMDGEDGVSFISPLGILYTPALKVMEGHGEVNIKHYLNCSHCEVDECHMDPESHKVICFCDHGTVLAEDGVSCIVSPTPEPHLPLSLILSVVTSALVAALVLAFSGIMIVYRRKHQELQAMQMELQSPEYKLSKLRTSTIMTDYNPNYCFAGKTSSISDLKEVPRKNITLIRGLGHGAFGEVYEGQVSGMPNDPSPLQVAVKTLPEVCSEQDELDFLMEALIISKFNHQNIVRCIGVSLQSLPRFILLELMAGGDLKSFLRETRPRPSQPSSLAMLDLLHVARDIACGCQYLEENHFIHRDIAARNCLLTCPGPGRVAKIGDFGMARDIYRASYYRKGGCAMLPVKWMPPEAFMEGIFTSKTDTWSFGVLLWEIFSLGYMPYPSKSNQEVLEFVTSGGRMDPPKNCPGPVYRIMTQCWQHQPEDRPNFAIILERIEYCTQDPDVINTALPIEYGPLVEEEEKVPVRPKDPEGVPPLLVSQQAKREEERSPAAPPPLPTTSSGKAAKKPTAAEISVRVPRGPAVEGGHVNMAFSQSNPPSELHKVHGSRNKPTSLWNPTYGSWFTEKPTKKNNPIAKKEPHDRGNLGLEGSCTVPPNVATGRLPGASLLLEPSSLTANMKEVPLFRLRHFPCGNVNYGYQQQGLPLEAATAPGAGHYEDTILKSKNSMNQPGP

For `COc1cc(-c2cncc(-c3ccc(N4CCN(C)CC4)cc3)c2C)cc(F)c1C(N)=O` [Compound 26a, 2-Fluoro-6-methoxy-4-(4-methyl-5-(4-(4-methylpiperazin-1-yl)phenyl)pyridin-3-yl)benzamide], which “% enzyme activity” value (ALK) is on record?
Its value is 99.31%.

What about the CYP inhibition (CYP1A2) of the same compound?
The CYP inhibition was > 50 µM.

And the remaining activity at 1 µM (MKK7)?
Its remaining activity at 1 µM is 93%.

And the remaining activity at 1 µM (JAK2)?
The remaining activity at 1 µM was 93.5%.

And the remaining activity at 1 µM (PKCepsilon)?
Its remaining activity at 1 µM is 99.8%.

And the remaining activity at 1 µM (Aurora A)?
Its remaining activity at 1 µM is 101%.

And the “% enzyme activity” value (RAF1)?
Its value is 78.57%.

And the remaining activity at 1 µM (PKN3/PRK3)?
Its remaining activity at 1 µM is 95%.

For `COc1cc(-c2cncc(-c3ccc(N4C[C@@H](C)N(C)[C@@H](C)C4)cc3)c2C)cc(F)c1C(N)=O` [Compound 26c, 2-Fluoro-6-methoxy-4-(4-methyl-5-(4-((3R,5S)-3,4,5-trimethylpiperazin-1-yl)phenyl)pyridin-3-yl)benzamide], which “% enzyme activity” value (ALK) is on record?
The value was 96.51%.

What about the CYP inhibition (CYP1A2) of the same compound?
The CYP inhibition was > 50 µM.

And the remaining activity at 1 µM (MKK7)?
Its remaining activity at 1 µM is 98.7%.

And the remaining activity at 1 µM (JAK2)?
The remaining activity at 1 µM was 88.6%.

What about the remaining activity at 1 µM (PKCepsilon) of the same compound?
The remaining activity at 1 µM was 106%.

And the remaining activity at 1 µM (Aurora A)?
The remaining activity at 1 µM was 102%.

And the “% enzyme activity” value (RAF1)?
The value was 83.85%.

And the remaining activity at 1 µM (PKN3/PRK3)?
The remaining activity at 1 µM was 98.4%.
